Experimental data from the supplement of paper PMC10307832.

Experiments:
Assay in all cases: relative viability (nuclei count vs DMSO), 5 days (fraction); higher = more cells survive
[1] = compound: CC1=CC(=NN1)NC2=CC(=NC(=N2)/C=C/C3=CC=CC=C3)N4CCN(CC4)C + Nc1ncn([C@H]2C[C@H](O)[C@@H](CO)O2)c(=O)n1 [Decitabine] (partner 2 µM)
In short: (§1)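 Nuclei were stained with Hoechst during a one-step fixation (final 0.05% Triton X-100, 1% formaldehyde, 1 ug/ml Hoechst) carried out 5 days after dosing, then counted on 4× images. The cells, lung cancer lines in 1536-well plates, had been dosed by pin tool the day after seeding with one drug alone or a fixed anchor-drug dose plus five library-drug doses (not always all listed) in √10 steps. Relative viability is the nuclei count in treated wells divided by that in vehicle wells, and each value is the median of duplicate plates.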

Bortezomib + Crizotinib = compound: CC(C)C[C@H](NC(=O)[C@H](Cc1ccccc1)NC(=O)c1cnccn1)B(O)O [Bortezomib] + C[C@@H](Oc1cc(-c2cnn(C3CCNCC3)c2)cnc1N)c1c(Cl)ccc(F)c1Cl [Crizotinib] (partner 1 µM)
In short: as §1

Obatoclax + Bortezomib = compound: COC1=CC(c2cc3ccccc3[nH]2)=N/C1=C\c1[nH]c(C)cc1C [Obatoclax] + CC(C)C[C@H](NC(=O)[C@H](Cc1ccccc1)NC(=O)c1cnccn1)B(O)O [Bortezomib] (partner 0.002 µM)
In short: as §1

Obatoclax + Tozasertib = compound: COC1=CC(c2cc3ccccc3[nH]2)=N/C1=C\c1[nH]c(C)cc1C [Obatoclax] + Cc1cc(Nc2cc(N3CCN(C)CC3)nc(Sc3ccc(NC(=O)C4CC4)cc3)n2)n[nH]1 [Tozasertib] (partner 0.1 µM)
In short: as §1

Row | Cell Line | relative viability ([1]; first compound 0.08 µM) | relative viability ([1]; first compound 0.253 µM) | relative viability ([1]; first compound 0.8 µM) | relative viability ([1]; first compound 2.53 µM) | relative viability ([1]; first compound 8 µM) | relative viability (Bortezomib + Crizotinib; first compound 0.0002 µM) | relative viability (Bortezomib + Crizotinib; first compound 0.000632 µM) | relative viability (Bortezomib + Crizotinib; first compound 0.002 µM) | relative viability (Bortezomib + Crizotinib; first compound 0.006325 µM) | relative viability (Bortezomib + Crizotinib; first compound 0.02 µM) | relative viability (Obatoclax + Bortezomib; first compound 0.01 µM) | relative viability (Obatoclax + Bortezomib; first compound 0.03162 µM) | relative viability (Obatoclax + Bortezomib; first compound 0.1 µM) | relative viability (Obatoclax + Bortezomib; first compound 0.3162 µM) | relative viability (Obatoclax + Bortezomib; first compound 1 µM) | relative viability (Obatoclax + Tozasertib; first compound 0.01 µM) | relative viability (Obatoclax + Tozasertib; first compound 0.03162 µM) | relative viability (Obatoclax + Tozasertib; first compound 0.1 µM) | relative viability (Obatoclax + Tozasertib; first compound 0.3162 µM) | relative viability (Obatoclax + Tozasertib; first compound 1 µM)
1 | COR-L 105 | 0.549 | 0.847 | 0.624 | 0.425 | 0.235 | 0.673 | 0.741 | 0.577 | 0.206 | 0.215 | 0.989 | 0.782 | 0.777 | 0.432 | 0.335 | 0.381 | 0.316 | 0.345 | 0.284 | 0.248
2 | LCLC-97TM1 | 0.176 | 0.22 | 0.244 | 0.182 | 0.0703 | 0.4 | 0.329 | 0.111 | 0.114 | 0.118 | 0.735 | 0.449 | 0.439 | 0.619 | 0.213 | 0.268 | 0.255 | 0.232 | 0.215 | 0.21
3 | NCI-H520 | 0.382 | 0.542 | 0.501 | 0.191 | 0.14 | 0.913 | 0.759 | 0.894 | 0.102 | 0.102 | 0.664 | 0.525 | 0.562 | 0.299 | 0.264 | 0.42 | 0.434 | 0.492 | 0.402 | 0.295
4 | NCI-H1993 | 0.526 | 0.598 | 0.616 | 0.47 | 0.445 | 0.876 | 0.974 | 0.847 | 0.342 | 0.506 | 1.2 | 1.05 | 1.22 | 1.2 | 1.2 | 0.594 | 0.637 | 0.618 | 0.604 | 0.624
